Source: patent publication US8895499B2, “β-hairpin peptidomimetics” (Polyphor AG, priority 2010, dated 2014)
≈ marks a conversion by molar mass, not a printed value. Peptide text beside a SMILES is read from it.

Columns and labels:
[1] = tested on: Shigella boydii DSM 7532; conditions: Mueller-Hinton II broth + 0.02% BSA, 18-20 hours at 37° C.
Experimental: […] colony forming units (CFU)/mL. Aliquots (50 μl) of inoculate were added to 50 μl of MH broth+0.02% BSA containing the peptide in serial two-fold dilutions. The following microorganisms were used to determine antibiotic selectivity of the peptides: Bacillus subtilis DSM 10 and Shigella boydii DSM 7532.

[2] = in vitro; format: cell-based
Experimental: The cytotoxicity of the peptides to HELA cells (Acc57) and COS-7 cells (CRL-1651) was determined using the MTT reduction assay (T. Mossman, J. Immunol. Meth. 1983, 65, 55-63; M. V. Berridge, A. S. Tan, Arch. Biochem. Biophys. 1993, 303, 474-482). Briefly, the method was as follows: 4000 HELA cells/well and 3400 COS-7 cells/well were seeded and grown in 96-well microtiter plates for 24 h at 37° C. at 5% CO2. Thereafter, time zero (Tz) was determined by MTT reduction (see below). The supernatant of the remaining wells was discarded, and fresh medium and compounds in serial dilutions (12.5, 25 and 50 μg/mL, triplicates) were pipetted into the wells. After incubation of the cells for 48 h at 37° C. at 5% CO2 the supernatant was discarded again and 100 μL MTT reagent (0.5 mg/mL in RPMI1640 and DMEM, respectively)/well was added. Following incubation at 37° C. for 2-4 h the media were aspirated and the cells were spiked (100 μL isopropanol/well). The absorbance of the solubilized formazan was measured at 595 nm (OD595peptide). For each concentration averages were calculated from triplicates. The percentage of growth was calculated as follows: (OD595peptide-OD595Tz-OD595Empty well)/(OD595Tz-OD595Empty well)×100%. The GI50 (Growth Inhibition) concentrations were calculated for each peptide by using a trend line function for the concentrations (50, 25, 12.5 and 0 μg/mL), the corresponding percentages and the value 50, (=TREND (C50:C0%50:%0,50).

[3] = tested on: human red blood cells (hRBC); format: cell-based; conditions: red cells of human, 1 h
Experimental: The peptides were tested for their hemolytic activity against human red blood cells (hRBC). Fresh hRBC were washed three times with phosphate buffered saline (PBS) and centrifuged for 10 min at 2000×g. Compounds (100 μg/mL) were incubated with 20% hRBC (v/v) for 1 h at 37° C. and shaking at 300 rpm. The final erythrocyte concentration was approximately 0.9×10^9 cells/mL. A value of 0% and 100% cell lyses, respectively, was determined by incubation of hRBC in the presence of PBS containing 0.001% acetic acid and 2.5% Triton X-100 in H2O, respectively. The samples were centrifuged, the supernatants were 8-fold diluted in PBS buffer and the optical densities (OD) were measured at 540 nm. The 100% lyses value (OD540H2O) gave an OD50 of approximately 0.5-1.0.
Percent hemolysis was calculated as follows: (OD540peptide/OD540H2O)×100%.

Row | Compound | Shigella boydii DSM 7532 MIC [1] [µg/mL] | GI50 at 48 h ([2]; African green monkey) [µg/mL] | GI50 at 48 h ([2]; human) [µg/mL] | Hemolysis at 100 μg/mL [3] [%]
1 | CC[C@H](C)[C@@H]1NC(=O)[C@H](CCCNC(=N)N)NC(=O)[C@H](Cc2c[nH]c3ccccc23)NC(=O)[C@@H]2CCCN2C(=O)[C@H]2CCCN2C(=O)[C@H](C)NC(=O)[C@H](CCC(N)=O)NC(=O)[C@H](CC(C)C)NC(=O)[C@H](CCCNC(=N)N)NC(=O)[C@H](CCC(N)=O)NC(=O)[C@H](CC(N)=O)NC(=O)[C@@H](CCCNC(=N)N)NC(=O)[C@H]([C@@H](C)CC)NC(=O)[C@H](CCN)NC1=O [Example 7] (HELM PEPTIDE1{W.R.I.[Dab].I.[dR].N.Q.R.L.Q.A.[dP].P}$PEPTIDE1,PEPTIDE1,1:R1-14:R2$$$V2.0) | >16 | > 50 | > 50 | 0.0
2 | CC[C@H](C)[C@@H]1NC(=O)[C@H](CCCNC(=N)N)NC(=O)[C@H]([C@@H](C)CC)NC(=O)[C@H](CCCNC(=N)N)NC(=O)[C@H](Cc2c[nH]c3ccccc23)NC(=O)[C@@H]2CCCN2C(=O)[C@H]2CCCN2C(=O)[C@H](C)NC(=O)[C@H](CCC(N)=O)NC(=O)[C@H](CC(C)C)NC(=O)[C@H](CCCNC(=N)N)NC(=O)[C@H](CCC(N)=O)NC(=O)[C@H](CC(N)=O)NC(=O)[C@H](CCCN)NC1=O [Example 9] (HELM PEPTIDE1{W.R.I.R.I.[Orn].N.Q.R.L.Q.A.[dP].P}$PEPTIDE1,PEPTIDE1,1:R1-14:R2$$$V2.0) | >16 | > 50 | > 50 | 0.0
3 | CC[C@H](C)[C@@H]1NC(=O)[C@H](CCCNC(=N)N)NC(=O)[C@H](Cc2c[nH]c3ccccc23)NC(=O)[C@@H]2CCCN2C(=O)[C@H]2CCCN2C(=O)[C@H](C)NC(=O)[C@H](CCC(N)=O)NC(=O)[C@H](CC2CCCCC2)NC(=O)[C@H](CCCNC(=N)N)NC(=O)[C@H](CCC(N)=O)NC(=O)[C@H](CC(N)=O)NC(=O)[C@@H](CCCNC(=N)N)NC(=O)[C@H]([C@@H](C)CC)NC(=O)[C@H](CCCNC(=N)N)NC1=O [Example 4] (HELM PEPTIDE1{W.R.I.R.I.[dR].N.Q.R.[Cha].Q.A.[dP].P}$PEPTIDE1,PEPTIDE1,1:R1-14:R2$$$V2.0) | >16 | > 50 | > 50 | 0.8
4 | CC[C@H](C)[C@@H]1NC(=O)[C@H](CCCNC(=N)N)NC(=O)[C@H](Cc2c[nH]c3ccccc23)NC(=O)[C@@H]2CCCN2C(=O)[C@H]2CCCN2C(=O)[C@H](CCCNC(=N)N)NC(=O)[C@H](CCCNC(=N)N)NC(=O)[C@H](CC(N)=O)NC(=O)[C@H](CCCNC(=N)N)NC(=O)[C@H](Cc2c[nH]cn2)NC(=O)[C@H](CC(N)=O)NC(=O)[C@@H](CCCNC(=N)N)NC(=O)[C@H]([C@@H](C)CC)NC(=O)[C@H](CCCNC(=N)N)NC1=O [Example 18] (HELM PEPTIDE1{W.R.I.R.I.[dR].N.H.R.N.R.R.[dP].P}$PEPTIDE1,PEPTIDE1,1:R1-14:R2$$$V2.0) | 4 | > 50 | 39 (≈ 20.4 µM) | 0.3
5 | CC[C@H](C)[C@@H]1NC(=O)[C@H](CCCNC(=N)N)NC(=O)[C@H]([C@@H](C)CC)NC(=O)[C@H](CCCNC(=N)N)NC(=O)[C@H](Cc2c[nH]c3ccccc23)NC(=O)[C@@H]2CCCN2C(=O)[C@H]2CCCN2C(=O)[C@H](C)NC(=O)[C@H](CCC(N)=O)NC(=O)[C@H](CC(C)C)NC(=O)[C@H](CCCNC(=N)N)NC(=O)[C@H](CCC(N)=O)NC(=O)[C@H](CC(N)=O)NC(=O)[C@H](CCN)NC1=O [Example 10] (HELM PEPTIDE1{W.R.I.R.I.[Dab].N.Q.R.L.Q.A.[dP].P}$PEPTIDE1,PEPTIDE1,1:R1-14:R2$$$V2.0) | >16 | > 50 | > 50 | 0.4
6 | CC[C@H](C)[C@@H]1NC(=O)[C@H](CCCNC(=N)N)NC(=O)[C@H](Cc2c[nH]c3ccccc23)NC(=O)[C@@H]2CCCN2C(=O)[C@H]2CCCN2C(=O)[C@H](C)NC(=O)[C@H](CCC(N)=O)NC(=O)[C@H](Cc2c[nH]c3ccccc23)NC(=O)[C@H](CCCNC(=N)N)NC(=O)[C@H](CCC(N)=O)NC(=O)[C@H](CC(N)=O)NC(=O)[C@@H](CCCNC(=N)N)NC(=O)[C@H]([C@@H](C)CC)NC(=O)[C@H](CCCNC(=N)N)NC1=O [Example 16] (HELM PEPTIDE1{W.R.I.R.I.[dR].N.Q.R.W.Q.A.[dP].P}$PEPTIDE1,PEPTIDE1,1:R1-14:R2$$$V2.0) | 16 | > 50 | > 50 | 0.5
7 | CC[C@H](C)[C@@H]1NC(=O)[C@H](CCCNC(=N)N)NC(=O)[C@H](Cc2c[nH]c3ccccc23)NC(=O)[C@@H]2CCCN2C(=O)[C@H]2CCCN2C(=O)[C@H](C)NC(=O)[C@H](CCC(N)=O)NC(=O)[C@H](Cc2ccc(O)cc2)NC(=O)[C@H](CCCNC(=N)N)NC(=O)[C@H](CCC(N)=O)NC(=O)[C@H](CC(N)=O)NC(=O)[C@@H](CCCNC(=N)N)NC(=O)[C@H]([C@@H](C)CC)NC(=O)[C@H](CCCNC(=N)N)NC1=O [Example 15] (HELM PEPTIDE1{W.R.I.R.I.[dR].N.Q.R.Y.Q.A.[dP].P}$PEPTIDE1,PEPTIDE1,1:R1-14:R2$$$V2.0) | 16 | > 50 | > 50 | 0.0
8 | CC[C@H](C)[C@@H]1NC(=O)[C@H](CCCNC(=N)N)NC(=O)[C@H](Cc2c[nH]c3ccccc23)NC(=O)[C@@H]2CCCN2C(=O)[C@H]2CCCN2C(=O)[C@H](CCCNC(=N)N)NC(=O)[C@H](CCCNC(=N)N)NC(=O)[C@H](CC(C)C)NC(=O)[C@H](CCN)NC(=O)[C@H](CCCCN)NC(=O)[C@H](CC(N)=O)NC(=O)[C@@H](CCCNC(=N)N)NC(=O)[C@H]([C@@H](C)CC)NC(=O)[C@H](CCCNC(=N)N)NC1=O [Example 1] (HELM PEPTIDE1{W.R.I.R.I.[dR].N.K.[Dab].L.R.R.[dP].P}$PEPTIDE1,PEPTIDE1,1:R1-14:R2$$$V2.0) | 8 | > 50 | > 50 | 0.0
9 | CC[C@H](C)[C@@H]1NC(=O)[C@H](CCCNC(=N)N)NC(=O)[C@H](Cc2c[nH]c3ccccc23)NC(=O)[C@@H]2CCCN2C(=O)[C@H]2CCCN2C(=O)[C@H](CCC(N)=O)NC(=O)[C@H](CCCNC(=N)N)NC(=O)[C@H](CC(C)C)NC(=O)[C@H](CCCNC(=N)N)NC(=O)[C@H](CCCCN)NC(=O)[C@H](CC(N)=O)NC(=O)[C@@H](CCCNC(=N)N)NC(=O)[C@H]([C@@H](C)CC)NC(=O)[C@H](CCCNC(=N)N)NC1=O [Example 2] (HELM PEPTIDE1{W.R.I.R.I.[dR].N.K.R.L.R.Q.[dP].P}$PEPTIDE1,PEPTIDE1,1:R1-14:R2$$$V2.0) | 4 | > 50 | > 50 | 0.0
10 | CC[C@H](C)[C@@H]1NC(=O)[C@H](CCCNC(=N)N)NC(=O)[C@H](Cc2c[nH]c3ccccc23)NC(=O)[C@@H]2CCCN2C(=O)[C@H]2CCCN2C(=O)[C@H](C)NC(=O)[C@H](CCC(N)=O)NC(=O)[C@H](CC(C)C)NC(=O)[C@H](CCCNC(=N)N)NC(=O)[C@H](CCC(N)=O)NC(=O)[C@H]([C@@H](C)O)NC(=O)[C@@H](CCCNC(=N)N)NC(=O)[C@H]([C@@H](C)CC)NC(=O)[C@H](CCCNC(=N)N)NC1=O [Example 12] (HELM PEPTIDE1{W.R.I.R.I.[dR].T.Q.R.L.Q.A.[dP].P}$PEPTIDE1,PEPTIDE1,1:R1-14:R2$$$V2.0) | >16 | > 50 | > 50 | 0.7
11 | CC[C@H](C)[C@@H]1NC(=O)[C@H](CCCNC(=N)N)NC(=O)[C@H](Cc2c[nH]c3ccccc23)NC(=O)[C@@H]2CCCN2C(=O)[C@H]2CCCN2C(=O)[C@H](C)NC(=O)[C@H](CCC(N)=O)NC(=O)[C@H](CC(C)C)NC(=O)[C@H](CCCNC(=N)N)NC(=O)[C@H](CCC(N)=O)NC(=O)[C@H](CC(C)C)NC(=O)[C@@H](CCCNC(=N)N)NC(=O)[C@H]([C@@H](C)CC)NC(=O)[C@H](CCCNC(=N)N)NC1=O [Example 13] (HELM PEPTIDE1{W.R.I.R.I.[dR].L.Q.R.L.Q.A.[dP].P}$PEPTIDE1,PEPTIDE1,1:R1-14:R2$$$V2.0) | 16 | > 50 | > 50 | 0.0
